In data set [1] the test system is ovariectomy-induced bone loss. Put plainly: Bone density-improving effect in ovariectomy-induced osteoporosis model (micro-CT). It counts as in vivo, DDY female mice. To be noted: ovariectomized mice, p.o. 5 mg/kg or 10 mg/kg once a day for 4 weeks, FIG. 4, monohydrochloride. The method, then:
Thus, most studies are performed in animals. Ovariectomized mice are frequently used as a model for postmenopausal osteoporosis. Ovariectomized mice and early postmenopausal women share many similar characteristics, and thus ovariectomized mice have been commonly used in the studies of osteoporosis therapeutic agents. The present inventors performed ovariectomies on 5-week-old DDY female mice. The mice were anesthetized by intraperitoneal injection of 25 mg/kg of pentobarbital sodium (JW Pharmaceutical Corp). The abdomen of each mouse was shaved, and the surgical site was cleansed with antiseptics to perform ovariectomy. A 1.5 cm abdominal incision was made through the skin, muscle, and peritoneum to expose the ovary. The ovary was dissected out, and the peritoneum, muscle, and skin were sutured. As a control group, a sham ovariectomy was performed to the peritoneum identically, but the ovaries remained intact. The mouse models having ovariectomy-induced bone loss were orally administered (p.o.) with the colforsin compound at the concentrations of 5 mg/kg or 10 mg/kg once a day for 4 weeks. The effects were examined using a high resolution in-vivo micro-CT system (explore Locus scanner, GE Health Care, USA) to analyze the bone density.

The test system of data set [2] is murine monocytic cell line, RAW264.7. Description: Cytotoxicity test of monocytes (CCK-8 kit). Type of data set: cell-based. The following applies: RAW264.7, 0, 10, 20 and 30 μM, after 1, 2 and 4 days, FIG. 1, monohydrochloride. The protocol:
The murine monocytic cell line, RAW264.7 (ATTC TIB-71) was cultured in a DMEM medium supplemented with 10% FBS, and the medium was replaced every other day. The cell culture reagents were purchased from Hyclone. When RAW264.7 cells reached 70% confluence, the collected cells were aliquotted into a 96-well plate at a density of 1×10^3/well, and cultured for 24 hours. Subsequently, the cells were treated with colforsin daropate at various concentrations (0, 10, 20 and 30 μM), and cultured for 96 hours. After 1, 2, and 4 days in culture, a cytotoxicity test was performed using the cells in each well and a CCK-8 kit (Dojindo, Japan).

Data set [3] has as its system murine osteoblastic cell, MC3T3-E1 subclone 4. Description: Cell proliferation of osteoblastic cells. Type of data set: cell-based.
In data set [4] the test system is ALP activity in multipotent C3H10T1/2 cells. Put plainly: Alkaline phosphatase (ALP) activity, C3H10T1/2. It counts as cell-based. To be noted: FIG. 3B. The method, then:
(§1) A murine osteoblastic cell, MC3T3-E1 subclone 4 (ATCC CRL-2593) was treated with colforsin daropate. After 8 days, cells were lysed using a lysis buffer (10 mM Tris-HCl, pH 7.5, 0.5 mM MgCl2, 0.1% Triton X-100) at room temperature for 30 minutes, and centrifuged at 12,000 rpm and 4° C. for 20 minutes. Next, […] in the obtained supernatant using a BCA kit (Bio-Rad), and its activity was measured using a LabAssay ALP kit (Wako, Japan). In this regard, the measured activity was presented as a % of the control, and a significance test was performed by t-test (colforsin daropate treatment, p<0.05; purmorphamine treatment as control, p<0.05). The same experiment was performed using multipotent C3H10T1/2 cells (cells can differentiate toward various lineages, including osteocytes).

Data set [5] relates to TRAP activity induced by RANKL in the monocytic cell line RAW264.7. Description: Osteoclast differentiation, TRAP staining and activity assay. Type of data set: cell-based, murine. The protocol:
At this time, α-MEM containing 100 ng/ml RANKL (R&D systems) and 10% FBS was used as a cell suspension medium. After 24 hours, the cells were treated with colforsin daropate at various concentrations (0, 0.2, 1, 2, 10, and 20 μM). After 3 days, TRAP staining was performed using a leukocyte acid phosphatase kit (Sigma). The stained cells were first fixed in 10% formalin for 10 minutes, and then dehydrated in 95% ethanol, and dried well at room temperature. Subsequently, 100 μl of citrate buffer (50 mM, pH 4.6) containing 10 mM sodium tartrate and 5 mM p-nitrophenylphosphate was added to each well, and reacted for 20 to 30 minutes. Thereafter, the enzyme reaction mixtures were transferred into new 96-well plates, and the reaction was terminated using 100 μl of 0.1 N NaOH. Absorbance was measured at 405 nm. TRAP activity was presented as a % of control, and a significance test was performed by t-test at the same time (purmorphamine treatment p<0.01; colforsin daropate treatment p<0.001). Purmorphamine was used as a control compound.

The test system of data set [6] is ALP activity in murine osteoblastic cell, MC3T3-E1 subclone 4. Description: Alkaline phosphatase (ALP) activity of osteoblast, MC3T3-E1. Type of data set: cell-based. The arrangement: osteoblast differentiation-related ALP activity compared with the control compound purmorphamine: dose or concentration left out as unconfirmed. The method, then: as §1, with “In order to examine the effect of colforsin daropate on the activity of ALP, of which activity and expression are known to be increased at an early stage of osteoblast differentiation, the following experiment was performed. A murine” for “A murine”

Molecules are shown by their SMILES. “Also recorded” adds a separate entry of the source.

On to `C=C[C@@]1(C)CC(=O)[C@]2(O)[C@@]3(C)[C@@H](O)CCC(C)(C)[C@@H]3[C@H](OC(=O)CCN(C)C)[C@H](OC(C)=O)[C@@]2(C)O1.Cl` [colforsin daropate], for which, in data set [1], the “bone density / ovariectomy-induced bone loss” value was “remarkably increased; also recorded: remarkably improved”. Also, in data set [2], the cytotoxicity result was “no cytotoxicity; also recorded: without cytotoxicity”. For the same compound, the cell proliferation entry in data set [3] is on record as “did not affect cell proliferation”. For the same compound, the ALP activity entry in data set [4] is “also remarkably increased”; in data set [6] (MC3T3-E1 subclone 4, after 8 days, % of control, FIG. 3A), “remarkably increased”. Moreover, the “TRAP activity induced by RANKL” value in data set [5] (RAW264.7, 100 ng/ml RANKL, 0.2-20 μM, 3 days, % of control, FIG. 2) is “inhibited TRAP activity induced by RANKL in the monocytic cell line RAW264.7 in a concentration-dependent manner”. In addition, the osteoclast differentiation result in data set [5] (RAW264.7 with RANKL, FIGS. 1 and 2) is “efficacy of inhibiting osteoclast differentiation”. The “osteoblast differentiation-related ALP activity compared with the control compound purmorphamine” value in data set [6] (versus purmorphamine) is recorded as “more increased”.

Values taken from US8865762B2, “Method for the treatment of bone diseases comprising colforsin daropate” (Korea Research Institute of Bioscience and Biotechnology, priority 2009, dated 2014).
